Active and inactive are the calls of the source. The rule behind the calls is not given here. Numbered stars: 1 amine (or outer) side, 2 acyl side, 3 side chain; on linkers, the order of the positions; unused ones are H or OH. Bridge positions count the residues as written; N and C are the ends. Square brackets hold non-standard residues; d marks the D form. Peptide text beside a SMILES is read from it. I, II: the chains in the order shown. Actinocin(9to1) = Cc1c2oc3c(C)ccc(C(=O)[*:1])c3nc-2c(C(=O)[*:2])c(N)c1=O; NMeV = CN[C@H](C(=O)O)C(C)C; Sar = CNCC(=O)O
Experiments:
[1] = Dose modifying factor expressed as the ratio of IC50 for the chemotherapy drug to IC50 for drug + GG918; Range = 1.0-23; assay type: functional
[2] = Fold reduction in minimum inhibitory concentration of antibiotic in presence of Reserpine; assay type: functional
[3] = Fold reduction in minimum inhibitory concentration of antibiotic in presence of GG918; assay type: functional
[4] = test system: Lycopus europaeus; test: Inhibitory activity against Lycopus europeus; no inhibitory activity; assay type: functional, organism-based
[5] = test system: NCI-H69; test: Percentage inhibition of cell growth in the presence of compound in H69/LX4 cells with as GG918 inhibitor; reversal of inhibition; assay type: functional, cell-based
[6] = test system: NCI-H69; test: Percentage inhibition of cell growth in the presence of compound in H69/LX4 cells with B669 as inhibitor; reversal of inhibition; assay type: functional, cell-based
[7] = test system: NCI-H69; test: Percentage inhibition of cell growth in the presence of compound in H69/LX4 cells with Clofazemine as inhibitor; reversal of inhibition; assay type: functional, cell-based
[8] = test system: NCI-H69; test: Percentage inhibition of cell growth in the presence of compound in H69/LX4 cells with verapamil as inhibitor; reversal of inhibition; assay type: functional, cell-based
[9] = Relative resistance is the ratio of IC50 values of drug with JTV-519 to that without the reversing agent; assay type: functional
[10] = Dose modifying factor expressed as the ratio of IC50 for the chemotherapy drug to IC50 for drug + GG918; Range = 1.2-1850; assay type: functional
[11] = Fold reduction in fluorescence in presence and absence of MC-002595 at 128 mg/mL; assay type: functional
[12] = Inhibitory concentration in presence of MDR inhibitor XR-9576; assay type: functional
[13] = test system: NCI-H69; test: Approximate percentage for level of inhibition of cell growth in presence and absence of inhibitor (Value of drug + Clofazimine / Value of drug); assay type: functional
[14] = test system: A549; test: Synergism with sulindac in A549 cells; assay type: functional
[15] = test system: NCI-H69; test: Approximate percentage for level of inhibition of cell growth in presence and absence of inhibitor (Value of drug + GG918 / Value of drug); assay type: functional
[16] = test system: NCI-H69; test: Approximate percentage for level of inhibition of cell growth in presence and absence of inhibitor (Value of drug + alpha Tochoferol / Value of drug); assay type: functional
[17] = Relative inhibition (IC50) in presence and absence of reserpine; assay type: functional
[18] = test system: A549; test: Synergism with tolmetin in A549 cells; assay type: functional
[19] = test system: NCI-H69; test: Approximate percentage for level of inhibition of cell growth in presence and absence of inhibitor (Value of drug + B669 / Value of drug); assay type: functional
[20] = test system: NCI-H69; test: Approximate percentage for level of inhibition of cell growth in presence and absence of inhibitor (Value of drug + Verapamil / Value of drug); assay type: functional
[21] = test system: DLKP cell line; test: Synergism with tolmedin in DLKP cells; assay type: functional
[22] = test system: DLKP cell line; test: Synergism with sulindac in DLKP cells; assay type: functional
[23] = test system: A549; test: Synergism with indomethacin in A549 cells; assay type: functional
[24] = test system: DLKP cell line; test: Synergism with indomethacin in DLKP cells; assay type: functional
[25] = test system: A549; test: Antagonism of tolmetin in A549 cells; assay type: functional
[26] = test system: DLKP cell line; test: Antagonism of sulindac in DLKP cells; assay type: functional
[27] = test system: DLKP cell line; test: Antagonism of indomethacin in DLKP cells; assay type: functional
[28] = test system: A549; test: Antagonism of indomethacin in A549 cells; assay type: functional
[29] = Inhibitory activity in presence of VX-710 inhibitor; successful in clinical trials; assay type: functional
[30] = test system: A549; test: Antagonism of sulindac in A549 cells; assay type: functional
[31] = test system: NCI-H69; test: Percentage inhibition of cell growth in the presence of compound and in the absence of […] in H69/LX4 cells with clofazimine MDR inhibitor; assay type: functional

CC[C@@]1(O)C(=O)OCc2c1cc1n(c2=O)Cc2cc3c(CN(C)C)c(O)ccc3nc2-1
Ratio [1]: 1

CCn1cc(C(=O)O)c(=O)c2cc(F)c(N3CCNCC3)cc21
Fold reduction [2]: 4 | Fold reduction [3]: 8 | inhibition [4]: inactive

COc1c(N2C[C@@H]3CCCN[C@@H]3C2)c(F)cc2c(=O)c(C(=O)O)cn(C3CC3)c12
Fold reduction [2]: 2 | Fold reduction [3]: 0

Cc1c(C)c2c(c(C)c1O)CC[C@@](C)(CCC[C@H](C)CCC[C@H](C)CCCC(C)C)O2
inhibition [5]: reversal of inhibition | inhibition [6]: reversal of inhibition | inhibition [7]: reversal of inhibition | inhibition [8]: reversal of inhibition

Cc1ccc(NC(=O)c2ccc(CN3CCN(C)CC3)cc2)cc1Nc1nccc(-c2cccnc2)n1
Ratio [9]: 3.1

O=C(O)c1cn(C2CC2)c2cc(N3CCNCC3)c(F)cc2c1=O
Fold reduction [2]: 8 | Fold reduction [3]: 8

O=C1c2c(O)ccc(O)c2C(=O)c2c(NCCNCCO)ccc(NCCNCCO)c21
Ratio [10]: 1.2

c1ccc(Nc2cccc3ccccc23)cc1
Fold reduction [11]: 2.3

Cc1c2oc3c(C)ccc(C(=O)N[C@@H]4C(=O)N[C@H](C(C)C)C(=O)N5CCC[C@H]5C(=O)N(C)CC(=O)N(C)[C@@H](C(C)C)C(=O)O[C@@H]4C)c3nc-2c(C(=O)N[C@@H]2C(=O)N[C@H](C(C)C)C(=O)N3CCC[C@H]3C(=O)N(C)CC(=O)N(C)[C@@H](C(C)C)C(=O)O[C@@H]2C)c(N)c1=O (I: T[dV]P[Sar][NMeV] / II: T[dV]P[Sar][NMeV]; ester I:1-I:C, II:1-II:C; linker I:N-II:N via Actinocin(9to1))
Ratio [9]: 3

COc1cccc2c1C(=O)c1c(O)c3c(c(O)c1C2=O)C[C@@](O)(C(C)=O)C[C@@H]3O[C@H]1C[C@H](N)[C@H](O)[C@H](C)O1 [DAUNORUBICIN]
IC50 [12]: 38.2 nM

COc1cccc2c1C(=O)c1c(O)c3c(c(O)c1C2=O)C[C@@](O)(C(=O)CO)C[C@@H]3O[C@H]1C[C@H](N)[C@H](O)[C@H](C)O1 [DOXORUBICIN]
Reduction [13]: ~40% | Combination_index [14]: 0.368 | Reduction [15]: ~58% | Reduction [16]: 0% | Fold increase [17]: 2.9 | Combination_index [18]: 0.357 | Reduction [19]: ~31% | Reduction [20]: ~33% | Combination_index [21]: 0.467 | Combination_index [22]: 0.449 | Combination_index [23]: 0.251

COc1cc([C@@H]2c3cc4c(cc3[C@@H](O[C@@H]3O[C@@H]5CO[C@@H](C)O[C@H]5[C@H](O)[C@H]3O)[C@H]3COC(=O)[C@H]23)OCO4)cc(OC)c1O [ETOPOSIDE]
Combination_index [14]: 0.681 | Ratio [9]: 2.6 | Combination_index [24]: 0.534 | Combination_index [21]: 0.745 | Combination_index [22]: 0.463 | Combination_index [23]: 0.916

CC(=O)O[C@H]1C(=O)[C@@]2(C)[C@H]([C@H](OC(=O)c3ccccc3)[C@]3(O)C[C@H](OC(=O)[C@H](O)[C@@H](NC(=O)c4ccccc4)c4ccccc4)C(C)=C1C3(C)C)[C@]1(OC(C)=O)CO[C@@H]1C[C@@H]2O [PACLITAXEL]
Combination_index [25]: 1.349 | Combination_index [26]: 1.233 | Combination_index [27]: 1.227 | Combination_index [28]: 2.234 | inhibition [29]: Active | Combination_index [30]: 1.539

CC[C@]1(O)C[C@@H]2CN(CCc3c([nH]c4ccccc34)[C@@](C(=O)OC)(c3cc4c(cc3OC)N(C)[C@H]3[C@@](O)(C(=O)OC)[C@H](OC(C)=O)[C@]5(CC)C=CCN6CC[C@]43[C@@H]65)C2)C1 [VINBLASTINE]
Reduction [31]: ~94% | Reduction [16]: ~95% | Fold increase [17]: 8 | Reduction [20]: ~88%

CC[C@]1(O)C[C@H]2CN(CCc3c([nH]c4ccccc34)[C@@](C(=O)OC)(c3cc4c(cc3OC)N(C=O)[C@H]3[C@@](O)(C(=O)OC)[C@H](OC(C)=O)[C@]5(CC)C=CCN6CC[C@]43[C@@H]65)C2)C1 [VINCRISTINE]
Combination_index [14]: 0.462 | Ratio [9]: 3.7 | Combination_index [21]: 0.593 | Combination_index [22]: 0.241 | Combination_index [23]: 0.301

— ChEMBL document CHEMBL1146678, “Inhibitors of multidrug resistance (MDR) have affinity for MDR substrates” (Bioorg Med Chem Lett, 2004)
